Results reported in PubChem BioAssay (NCI).
Values joined by “and” are separate entries in the source; they are usually repeats but may differ in a detail not shown here. Identical values can stand only once.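 1) Cells in 96-well plates. 2) Compound, 48 h, 5 concentrations. 3) Linear interpolation between surrounding doses. 4) Unreached endpoint = highest concentration. The concentration for 50% growth inhibition is given as GI50. Definition used: TGI = concentration required for complete inhibition of growth.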 Starred links: 1 amine or outer side, 2 acyl side, 3 side chain; linkers in the order of their positions; H or OH if unused. Positions of bridges follow the written chain, without caps; N, C: chain ends. Non-standard residues stand in square brackets, D forms with d. Residues, ends and D or L forms follow the SMILES beside them. Chains are numbered I, II in the order given. Actinocin(9to1) = Cc1c2oc3c(C)ccc(C(=O)[*:1])c3nc-2c(C(=O)[*:2])c(N)c1=O; NMeY = CN[CH](Cc1ccc(O)cc1)C(=O)O; Sar = CNCC(=O)O

How the values were obtained:
Assay in all cases: NCI-60 cell line screen, 48 h
LOX IMVI melanoma = tested on: LOX IMVI melanoma
HS 578T breast = tested on: HS 578T breast
U251 CNS = tested on: U251 CNS
MDA-MB-231 breast = tested on: MDA-MB-231 breast
RXF 393 renal = tested on: RXF 393 renal
M14 melanoma = tested on: M14 melanoma
HL-60(TB) leukemia = tested on: HL-60(TB) leukemia
HT29 colon = tested on: HT29 colon
KM12 colon = tested on: KM12 colon
CCRF-CEM leukemia = tested on: CCRF-CEM leukemia

SMILES | TGI (LOX IMVI melanoma) [µM] | TGI (HS 578T breast) | TGI (U251 CNS) [µM] | TGI (MDA-MB-231 breast) [µM] | TGI (RXF 393 renal) | TGI (M14 melanoma) | TGI (HL-60(TB) leukemia) [µM] | TGI (HT29 colon) | TGI (KM12 colon) | TGI (CCRF-CEM leukemia) [µM] | GI50 (LOX IMVI melanoma) | GI50 (MDA-MB-231 breast) | GI50 (RXF 393 renal) | GI50 (M14 melanoma) | GI50 (HT29 colon) | GI50 (CCRF-CEM leukemia) | GI50 (HS 578T breast) [µM] | GI50 (U251 CNS) [µM] | GI50 (HL-60(TB) leukemia) [µM] | GI50 (KM12 colon) [µM]
CCn1c(-c2ccccc2)cs/c1=N\C(P(=O)(O)O)P(=O)(O)O | > 100 | > 100 µM | > 100 | > 100 | > 100 µM | > 100 µM | > 100 | > 100 µM | > 100 µM | > 100 |  |  |  |  |  |  |  |  |  | 
O=C1Sc2cc3ccccc3cc2C(=O)Sc2ccc(Br)cc21 | 3.97 | > 35 µM | 5.27 | 12.2 | 7.88 µM | 14.4 µM | > 100 | 13.1 µM | 21.2 µM | > 19.7 |  |  |  |  |  |  |  |  |  | 
CC(=O)c1ccccc1NP(=O)(c1ccccc1)c1ccccc1 | > 100 | > 100 µM | > 100 | > 100 | > 100 µM | > 100 µM | 87.7 | > 100 µM | > 100 µM | > 100 |  |  |  |  |  |  |  |  |  | 
C=CCCON(C(=O)OC(C)(C)C)C(C)(C)C | > 100 | > 100 µM | > 100 | > 100 | > 100 µM | > 100 µM | > 100 | > 100 µM | > 100 µM | > 100 |  |  |  |  |  |  |  |  |  | 
COc1cc(OC)cc(Oc2nc3ccccc3nc2C(F)(F)F)c1 | > 100 | > 100 µM | > 100 | 94.9 | > 100 µM | > 100 µM | > 100 | > 100 µM | > 100 µM | > 100 |  |  |  |  |  |  |  |  |  | 
Cc1ccc(C2SCC(=O)N2c2ccc(-n3c(-c4ccccc4)nc4ccccc4c3=O)cc2)cc1 (configuration not stated) | 48.5 | 77.9 µM | 35 | 39.6 | 91.3 µM | 69.2 µM | 64.4 | 61.1 µM | > 100 µM | > 100 |  |  |  |  |  |  |  |  |  | 
Cc1c2oc3c(C)ccc(C(=O)NC4C(=O)NC(C(C)C)C(=O)N5CCCC5C(=O)N(C)CC(=O)N(C)C(Cc5ccc(O)cc5)C(=O)OC4C)c3nc-2c(C(=O)NC2C(=O)NC(C(C)C)C(=O)N3CCCC3C(=O)N(C)CC(=O)N(C)C(Cc3ccc(O)cc3)C(=O)OC2C)c(N)c1=O (configuration not stated) (I: TVP[Sar][NMeY] / II: TVP[Sar][NMeY]; ester I:1-I:C, II:1-II:C; linker I:N-II:N via Actinocin(9to1); configuration not given here) | > 1 | 0.0521 µM and 0.0624 µM | > 1 | > 1 | 0.307 µM and 0.0871 µM | > 0.793 µM and 0.229 µM | 0.0947 | 0.377 µM and > 0.412 µM | 0.536 µM and > 1 µM |  | 0.00436 µM and 0.000966 µM | 0.136 µM and 0.0318 µM | 0.0635 µM and 0.0229 µM | 0.175 µM and 0.0513 µM | 0.00859 µM and 0.00267 µM | 0.00256 µM and 0.00073 µM |  |  |  | 
NS(=O)(=O)c1ccc(/C=C/c2ccc(O)c(O)c2)cc1 | > 100 | 92.8 µM | 46.9 | 64.6 | > 100 µM | > 100 µM | > 100 | > 100 µM | 48.9 µM | > 100 | 29.9 µM |  |  |  | 35.4 µM | 4.79 µM | 25.6 | 16.3 | 16.3 | 18.2
N#Cc1n[nH]n(-c2ccc(Br)cc2)c1=O | > 100 | > 100 µM | > 100 | > 100 | > 100 µM | > 100 µM | > 100 | > 100 µM | > 100 µM | > 100 |  |  |  |  |  |  |  |  |  | 
COC(=O)/C=C(\C(=O)OC)C1C(=O)Oc2c(C)c(=O)c3ccccc3n21 (configuration not stated) | > 100 | > 100 µM | > 100 | > 100 | > 100 µM | > 100 µM | > 100 | > 100 µM | > 100 µM | > 100 |  |  |  |  |  |  |  |  |  | 
N#CC1C(=S)NC(c2ccccc2)=CC12CCCCC2 (configuration not stated) | 40.7 | > 100 µM | > 100 | > 100 | > 100 µM | 84.9 µM | 52.1 | > 100 µM | 60.2 µM | 56.4 |  |  |  |  |  |  |  |  |  | 
C[C@H]1[C@H]2[C@H]3CC[C@@H]4[C@@]5(C)CC[C@H](O)C(C)(C)[C@@H]5CC[C@@]4(C)[C@]3(C)C[C@H](O)[C@@]2(C)C[C@H]2O[C@]21C | 39.1 | 61 µM | 33.7 | 36.9 | 35.1 µM | 73.6 µM | > 100 | 30.2 µM | 46.1 µM | > 100 |  |  |  |  |  |  |  |  |  | 
CC1(C)OC(C(=O)Nc2cc3c4ccccc4ccc3c3ccccc23)C(C(=O)N2CCCCC2)O1 (configuration not stated) | 25.3 | > 96.6 µM | > 100 | > 100 | > 27.7 µM | > 100 µM | > 100 | > 100 µM | > 100 µM | > 100 |  |  |  |  |  |  |  |  |  | 
CC(C)NC(=O)OCc1c(COC(=O)NC(C)C)c(-c2cc[n+](COC(=O)C3CC3)cc2)n2c1CCC2 | > 100 | > 100 µM | > 100 | > 100 | > 100 µM | > 100 µM | > 100 | > 100 µM | > 100 µM | > 100 |  |  |  |  |  |  |  |  |  | 
CCCNC(=O)NNC(=O)c1c[nH]c2nc(C)ccc2c1=O | > 100 | > 100 µM | > 100 | > 100 | > 100 µM | > 100 µM | > 100 | > 100 µM | > 100 µM | > 100 |  |  |  |  |  |  |  |  |  | 
C=C(Cl)C(=CCl)CCC(Br)C(C)(C)Cl (mixture of isomers) | > 10 | > 10 µM | > 10 | > 10 | > 10 µM | > 10 µM | > 10 | > 10 µM | > 10 µM | 6.89 |  |  |  |  |  |  |  |  |  | 
O=c1oc2ccccc2cc1-c1cc2ccccn2c1 | > 100 | > 100 µM | > 100 | > 100 | > 100 µM | > 100 µM | > 100 | > 100 µM | > 100 µM | > 100 |  |  |  |  |  |  |  |  |  | 
CCO/C(O)=C(/C(=N)N1CCOCC1)C(=O)Nc1ccc(F)cc1 | > 100 | > 100 µM | > 100 | > 100 | > 100 µM | > 100 µM | > 100 | > 100 µM | > 100 µM | > 100 |  |  |  |  |  |  |  |  |  | 
CN1C(=O)c2ccccc2OC12C=Cc1c(ccc3ccccc13)O2 (configuration not stated) | 22.9 | 33.1 µM | > 34 | 44.6 | 31.1 µM | 17.1 µM | 17.6 | 10.3 µM | 8.64 µM | > 29.6 |  |  |  |  |  |  |  |  |  | 
O=c1[nH]nnc2c1sc1ncccc12 | > 100 | > 100 µM | > 100 | > 100 | > 100 µM | > 100 µM | > 100 | > 100 µM | > 100 µM | > 100 |  |  |  |  |  |  |  |  |  | 
C/C=C/C(CC(O)(C(F)(F)F)C(F)(F)F)=N/NC(N)=S | > 10 | > 10 µM | > 10 | > 10 | > 10 µM | > 10 µM | > 10 | > 10 µM | > 10 µM | > 10 |  |  |  |  |  |  |  |  |  | 
Brc1ccc2[nH]cc(-c3csc(-c4c[nH]c5ccccc45)n3)c2c1 | 4.5 | > 47.9 µM | 8.64 | 6.37 | 11.2 µM | 5.14 µM | 14.2 | 3.29 µM | 5.69 µM | 5.89 |  |  |  |  |  |  |  |  |  | 
CC(=O)OC(OC(C)=O)c1ccc2ccc3cccc4ccc1c2c34 | 36 | 36.8 µM | 41.8 | 84.1 | 25.3 µM | 61 µM | > 100 | 38.3 µM | > 100 µM | > 100 |  |  |  |  |  |  |  |  |  | 
COc1cc(OC)c2nc(C)c(CCCl)c(Cl)c2c1 | > 100 | > 100 µM | > 100 | > 100 | > 100 µM | > 100 µM | > 100 | > 100 µM | > 100 µM | > 100 |  |  |  |  |  |  |  |  |  | 
COC(=O)c1c(O)ccc2c1c1c(n2Cc2cc(OC)cc(OC)c2)C(=O)c2ccccc2C1 | > 100 | > 100 µM | > 100 | 91.6 | 68.6 µM | > 100 µM | > 100 | 24.6 µM | > 100 µM | 67.5 |  |  |  |  |  |  |  |  |  | 
O=C1C=CC(=O)c2c1ccc1c3ccccc3n(CCCCCn3c4ccccc4c4ccc5c(c43)C(=O)C=CC5=O)c21 | 35 | > 78.7 µM | 54 | 46.8 | 21.1 µM | 39.3 µM | 3.23 | 85.5 µM | > 100 µM | 6.58 |  |  |  |  |  |  |  |  |  | 
CN=C(n1ccnc1)n1ccnc1 | > 100 | > 100 µM | > 100 | > 100 | > 100 µM | > 100 µM | > 100 | > 100 µM | > 100 µM | > 100 |  |  |  |  |  |  |  |  |  | 
CC(C)(C)OC(=O)NC1CCCCC1NC(=O)C(=O)NC1CCCCC1NC(=O)OC(C)(C)C (configuration not stated) | > 100 | 57.1 µM | > 100 | > 100 | 38.8 µM | > 100 µM | > 100 | > 100 µM | > 100 µM | > 100 |  |  |  |  |  |  |  |  |  | 
COc1cc(C2c3cc4c(cc3OC(N3CCCCC3)C2C)OCO4)cc(OC)c1O (configuration not stated) | > 59.8 | 31.8 µM | > 64.6 | 28.1 | > 100 µM | > 69.4 µM | 15.4 | > 37.5 µM | 50.6 µM | 25.1 |  |  |  |  |  |  |  |  |  | 
